From US6869971B1, “UCS1025 derivatives” (Kyowa Hakko Kogyo Co., Ltd., priority 1999, dated 2005)
Values after ≈ are worked out from the molar mass of the structure shown.

Key:
Format in all cases: cell-based
[1] = test system: human renal carcinoma cell line ACHN; assay: Growth inhibition action on human renal carcinoma cell line ACHN; conditions: ACHN cells, 72 hours culture with compound, Cell proliferation kit II, read-out: IC50 (concentration inhibiting 50% of the cell growth)
Method: Cells of human renal carcinoma cell line ACHN adjusted to a density of 3×10^4 cells/ml with RPMI (Roswell Park Memorial Institute) medium comprising 10% fetal bovine serum and 2 mmol/l glutamine were dispensed in a volume of 50 μl into each well of a 96 well microtiter plate and cultured at 37° C. for 24 hours in a carbon dioxide incubator. Each of the test compounds serially diluted with the above medium was added to each well in a volume of 50 μl, following by culturing at 37° C. for 72 hours in a carbon dioxide incubator. After discarding the culture supernatant, each well was washed twice with 0.1 ml of phosphate buffered saline (PBS), and then 0.1 ml of the above medium was again added to each well. Cell proliferation kit II (Boehringer Mannheim) was used for the measurement of the number of cells in each well. After addition of a color-producing reagent and subsequent incubation at 37° C. for 3 hours in a carbon dioxide incubator, absorbance at 490 nm and 655 nm was measured using a microplate reader, and a value (differential absorbance) was calculated by subtracting the absorbance at 655 nm from the absorbance at 490 nm in each well. By comparing the differential absorbance obtained from untreated cells and that obtained from cells treated with a predetermined concentration of each test compound, the concentration of the test compound capable of inhibiting 50% of the cell growth was calculated and expressed as IC50.

[2] = test system: Enteroccccus hirae ATCC 10541; assay: Antibacterial activity (MIC), agar dilution method; conditions: read-out: minimum inhibitory concentration (MIC), ER
Method: (§1) Antibacterial activities (minimum inhibitory concentration (MIC: mg/ml)) of Compounds (I) on various bacteria are shown in Table 2. The antibacterial activity was measured by an agar dilution method using a medium comprising 3 g/L Bacto-Tryptone (manufactured by Difco), 3 g/L meat extract, 1 g/L yeast extract, 1 g/L glucose and 16 g/L agar.

[3] = test system: Bacillus subtilis ATCC 10707; assay: Antibacterial activity (MIC), agar dilution method; conditions: ATCC10707, read-out: minimum inhibitory concentration (MIC), BS
Method: as §1

| SMILES | IC50 [1] [µM] | MIC [2] [µg/mL] | MIC [3] [µg/mL] |
| --- | --- | --- | --- |
| COC(=O)[C@@H]1CCN2C(=O)C(C(=O)C3[C@H]4CCCC[C@@H]4C=C[C@@H]3C)=C[C@]12O (stereo partly shown) [Compound 1] | 4.4 | 520 (≈ 1.39 mM) | 520 (≈ 1.39 mM) |
| CCN(CC)C(=O)[C@@H]1CCN2C(=O)C(C(=O)C3[C@H]4CCCC[C@@H]4C=C[C@@H]3C)=C[C@]12O (stereo partly shown) [Compound 6] | 5.6 | 3600 (≈ 8.68 mM) | 1800 (≈ 4.34 mM) |
| CCCN(CCC)C(=O)[C@@H]1CCN2C(=O)C(C(=O)C3[C@H]4CCCC[C@@H]4C=C[C@@H]3C)=C[C@]12O (stereo partly shown) [Compound 7] |  | 5000 (≈ 11.3 mM) | 1300 (≈ 2.94 mM) |
| CCCCN(CCCC)C(=O)[C@@H]1CCN2C(=O)C(C(=O)C3[C@H]4CCCC[C@@H]4C=C[C@@H]3C)=C[C@]12O (stereo partly shown) [Compound 8] | 2.7 | 1500 (≈ 3.19 mM) | 380 (≈ 0.807 mM) |
| CCS[C@@H]1[C@H](C(=O)C2[C@H]3CCCC[C@@H]3C=C[C@@H]2C)C(=O)N2CC[C@@H](C(=O)N(CC)CC)[C@@]12O (stereo partly shown) [Compound 12] | 5.7 |  |  |
| C[C@H]1C=C[C@H]2CCCC[C@@H]2C1C(=O)C1Cc2cccn2C1=O (stereo partly shown) [Compound 16] | 64 |  |  |
| C[C@H]1C=C[C@H]2CCCC[C@@H]2C1C(=O)[C@@]1(Br)C(=O)N2CC[C@H]3C(=O)O[C@@H]1[C@]32O (stereo partly shown) [Compound 32] |  | 13000 (≈ 29.7 mM) | 13000 (≈ 29.7 mM) |
| C=CCOC(=O)[C@@H]1CCN2C(=O)C3(C(=O)C4[C@H]5CCCC[C@@H]5C=C[C@@H]4C)O[C@@H]3[C@]12O (stereo partly shown) [Compound 36] |  | 48000 (≈ 116 mM) | 48000 (≈ 116 mM) |
| CCN(CC)C(=O)[C@@H]1CCN2C(=O)C3(C(=O)C4[C@H]5CCCC[C@@H]5C=C[C@@H]4C)O[C@@H]3[C@]12O (stereo partly shown) [Compound 38] |  | 8100 (≈ 18.8 mM) | 16000 (≈ 37.2 mM) |
